Laboratory results published in the CheMixHub viscosity set.
± gives the uncertainty stated by the source.

Tests used:
[1] = 100 kPa
[2] = xn = mol fraction of the nth substance listed

CCCCCCCC[P+](CC)(CC)CC.O=[N+]([O-])c1cnc[n-]1
[1]
Conditions | viscosity [mPa·s]
293.15 K | 398 ± 20
298.15 K | 286 ± 13
303.15 K | 212 ± 9
308.15 K | 160 ± 6
313.15 K | 124 ± 4
318.15 K | 98 ± 3
323.15 K | 78 ± 2

C=CC(=O)OC + c1ccccc1
viscosity [mPa·s], [2], 101 kPa
Conditions | x2 = 0.105 | x2 = 0.2191 | x2 = 0.3452 | x2 = 0.4069 | x2 = 0.5314 | x2 = 0.6457 | x2 = 0.714 | x2 = 0.7852 | x2 = 0.8977
298.15 K | 0.472 ± 0.008 | 0.485 ± 0.008 | 0.501 ± 0.008 | 0.509 ± 0.008 | 0.526 ± 0.008 | 0.543 ± 0.008 | 0.554 ± 0.008 | 0.565 ± 0.009 | 0.585 ± 0.009
303.15 K | 0.433 ± 0.007 | 0.447 ± 0.007 | 0.462 ± 0.008 | 0.47 ± 0.008 | 0.488 ± 0.008 | 0.505 ± 0.008 | 0.515 ± 0.008 | 0.526 ± 0.008 | 0.545 ± 0.008
308.15 K | 0.398 ± 0.007 | 0.412 ± 0.007 | 0.428 ± 0.007 | 0.436 ± 0.007 | 0.453 ± 0.007 | 0.47 ± 0.008 | 0.481 ± 0.008 | 0.492 ± 0.008 | 0.51 ± 0.008
313.15 K | 0.369 ± 0.007 | 0.382 ± 0.007 | 0.392 ± 0.007 | 0.403 ± 0.007 | 0.418 ± 0.007 | 0.433 ± 0.007 | 0.442 ± 0.007 | 0.452 ± 0.007 | 0.467 ± 0.008

C=CC(=O)OCCCC + c1ccccc1
viscosity [mPa·s], [2], 101 kPa
Conditions | x2 = 0.1282 | x2 = 0.2182 | x2 = 0.2926 | x2 = 0.4108 | x2 = 0.4964 | x2 = 0.5923 | x2 = 0.708 | x2 = 0.7944 | x2 = 0.9032
298.15 K | 0.799 ± 0.01 | 0.773 ± 0.01 | 0.749 ± 0.01 | 0.719 ± 0.01 | 0.699 ± 0.01 | 0.679 ± 0.009 | 0.658 ± 0.009 | 0.641 ± 0.009 | 0.62 ± 0.009
303.15 K | 0.738 ± 0.01 | 0.709 ± 0.01 | 0.686 ± 0.009 | 0.656 ± 0.009 | 0.636 ± 0.009 | 0.618 ± 0.009 | 0.601 ± 0.009 | 0.59 ± 0.009 | 0.574 ± 0.009
308.15 K | 0.683 ± 0.009 | 0.649 ± 0.009 | 0.625 ± 0.009 | 0.595 ± 0.009 | 0.576 ± 0.008 | 0.564 ± 0.008 | 0.554 ± 0.008 | 0.545 ± 0.008 | 0.531 ± 0.008
313.15 K | 0.62 ± 0.009 | 0.585 ± 0.008 | 0.565 ± 0.008 | 0.538 ± 0.008 | 0.524 ± 0.008 | 0.51 ± 0.008 | 0.501 ± 0.008 | 0.496 ± 0.008 | 0.485 ± 0.008

CC(C)(C)c1ccccc1 + c1ccccc1
[2], 303.15 K, 101.3 kPa
Conditions | viscosity [mPa·s]
x2 = 0.0424 | 0.9763 ± 0.0079
x2 = 0.1376 | 0.9194 ± 0.0075
x2 = 0.2605 | 0.8507 ± 0.0069
x2 = 0.4018 | 0.7791 ± 0.0064
x2 = 0.5266 | 0.725 ± 0.006
x2 = 0.682 | 0.6637 ± 0.0056
x2 = 0.7952 | 0.6265 ± 0.0054
x2 = 0.865 | 0.6036 ± 0.0052
x2 = 0.9376 | 0.5792 ± 0.005
